Results from paper PMC4849654, “A High-Throughput Cell-Based Screen Identified a 2-[(E)-2-Phenylvinyl]-8-Quinolinol Core Structure That Activates p53” (PLoS ONE, 2016).

Experiments:
E6AP = target: T1, E6AP (Homo sapiens, UniProt Q05086); test: Surface plasmon resonance binding to E6AP; settings: SPR, data not shown
T1 sequence (Q05086 1-875): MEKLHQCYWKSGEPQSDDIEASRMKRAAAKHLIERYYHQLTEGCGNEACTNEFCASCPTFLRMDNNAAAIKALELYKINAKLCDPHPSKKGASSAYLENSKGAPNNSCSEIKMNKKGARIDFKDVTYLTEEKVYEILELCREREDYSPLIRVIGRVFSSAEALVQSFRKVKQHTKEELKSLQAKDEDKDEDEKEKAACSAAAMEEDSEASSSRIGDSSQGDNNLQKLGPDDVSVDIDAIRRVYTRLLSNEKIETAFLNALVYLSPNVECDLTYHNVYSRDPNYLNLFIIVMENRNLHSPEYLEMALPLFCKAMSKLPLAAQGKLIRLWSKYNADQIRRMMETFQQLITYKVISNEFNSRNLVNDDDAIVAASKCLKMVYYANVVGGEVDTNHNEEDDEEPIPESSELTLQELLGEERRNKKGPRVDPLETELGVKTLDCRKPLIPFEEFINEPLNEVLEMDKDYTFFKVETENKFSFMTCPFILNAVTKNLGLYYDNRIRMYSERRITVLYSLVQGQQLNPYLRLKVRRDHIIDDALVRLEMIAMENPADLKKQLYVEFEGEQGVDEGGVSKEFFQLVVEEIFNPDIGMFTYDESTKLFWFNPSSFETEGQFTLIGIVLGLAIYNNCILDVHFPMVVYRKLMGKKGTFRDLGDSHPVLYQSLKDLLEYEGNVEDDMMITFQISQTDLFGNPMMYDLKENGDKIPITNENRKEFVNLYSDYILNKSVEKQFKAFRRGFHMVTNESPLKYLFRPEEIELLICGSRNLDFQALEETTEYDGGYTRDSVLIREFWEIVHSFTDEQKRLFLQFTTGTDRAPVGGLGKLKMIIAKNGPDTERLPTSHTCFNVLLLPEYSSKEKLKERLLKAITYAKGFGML
From the text: Free reactive amines were then blocked with ethanolamine.

p53-Luc = test: In vitro E6 degradation assay (recombinant E6 with p53-Luc lysates); format: biochemical; settings: 50 ng recombinant E6, 10 μM compound, C33a lysates, 6 hours
Protocol: For the in vitro assay, E6 was cloned into the pMAL vector in frame with the maltose binding protein. The E6 was expressed in bacteria and purified on amylose column. C33a cells were transfected with p53-Luc and incubated overnight. 50 ng recombinant E6 was incubated with 10 μM compound and C33a lysates for 6 hours at 30 degrees. We measured luciferase activity after 30 minutes. For the trypsin and chymotrypsin assay, C33a cells were incubated for 2 hours with the indicated compounds at 10 μM and assessed for chymotrypsin and trypsin activity using Proteasome-Glo assay (Promega). For the in vivo degradation assay, C33a cells expressing Ad-TE6 and Ad-p53 or expressing Ad-TE7 and Ad-Rb-Ren were treated for 8 hours with compounds. After incubation, cells were lysed and luciferase activity measured and p53 levels measured by Western blot.

C33a cells [1] = test: Cell cycle distribution by PI staining; format: cell-based
PUMA promoter = test: ChIP-qPCR of p53 binding to the PUMA promoter; format: cell-based; settings: 8 hrs
Protocol: Cells treated with the indicated compounds for 8 hrs, harvested and ChIP was carried using a Chromatin Immunoprecipitation Assay Kit (EMD Millipore). p53-DNA complexes were immunoprecipitated using a mouse monoclonal DO-1 antibody (Santa Cruz) and incubated overnight at 4°C. qPCR amplifications was performed using the primer sequences Puma forward 5’- […], reverse 5’- […].

[2] = tested on: proteasome trypsin-like activity; test: Proteasome-Glo trypsin-like activity; format: cell-based; settings: C33a cells, 2 hrs, 10 μM or 30 μM
SQ20B cells = test: Cell viability, SQ20B; format: cell-based; settings: mutant p53
p21, BAX and FAS = test: p53 target gene expression (p21, BAX, FAS) by qRT-PCR; format: cell-based; settings: HeLa cells, 8h
From the text: (§1) RNA from C33a and HeLa was isolated by Trizol and reverse transcribed using the first strand synthesis kit from NEB. Primers for p53, GAPDH and PUMA were used for quantitative real-time PCR (qRT-PCR). Primer sequences include: PUMA (forward primer: CTCAACGCACAGTACGAG and reverse primer: […]), FAS (forward primer: TCTGCCATAAGCCCTGT and reverse primer: GTCTGTGTACTCCTTCCCT), p21 (forward primer: […] and reverse primer: […]), and BAX (forward primer: […] and reverse primer: […]). ΔΔCt values were determined for PUMA using GAPDH to normalize data. Bio-rad SYBR green was used for the amplification and detection of the PCR products on an iCycler (Bio-rad).

C33a cells [3] = test: Cell viability (Cell Titer Glo), C33a; format: cell-based
Protocol: (§2) For the viability assays, 20,000 C33a, HeLa, or siHA cells were plated in white 96 well flat bottom plates. The cells were treated with compounds at concentrations from 0.5 to 30 μM for 48 hrs. After incubation, Cell Titer Glo (Promega) was added to the cells and luminescence read in a Tecan II plate reader. For annexin V and PI staining, 500,000 C33a cells were treated with inhibitor for 24 hrs. The cells were stained with Annexin V-FITC and PI according to eBioscience manufacturer’s instructions and analyzed by flow cytometry.

PUMA = PUMA transcription by qRT-PCR; format: cell-based; settings: 30 μM, 8h
From the text: as §1

HeLa cells = test: Cell viability (Cell Titer Glo), HeLa; format: cell-based
Protocol: as §2

HCT116 cells = test: Cell viability, HCT116 (wtHCT116 and p53-null mutHCT116); format: cell-based
E6 = E6 (Human papillomavirus type 16, UniProt P03126); settings: SPR
Protocol: p53 or E6 (R&D systems) were suspended in 10 mM sodium acetate pH 5.0 and amine linked to a Biacore CM5 chip (GE systems). Free reactive amines were then blocked with ethanolamine. Compound 4 was diluted in HBS P buffer (GE systems) at concentrations 1–30 μM and run over the chip. The association time was monitored for 300s and disassociation time for 1000 sec. After each run, the chip was regenerated using 10 mM glycine pH 3.0. The sensograms were fit to a one-ligand model to determine the Ka and Kd.

siHA cells = test: Cell viability (Cell Titer Glo), siHA; format: cell-based; settings: 48h
Protocol: as §2

Sequence of E6 (P03126 whole entry): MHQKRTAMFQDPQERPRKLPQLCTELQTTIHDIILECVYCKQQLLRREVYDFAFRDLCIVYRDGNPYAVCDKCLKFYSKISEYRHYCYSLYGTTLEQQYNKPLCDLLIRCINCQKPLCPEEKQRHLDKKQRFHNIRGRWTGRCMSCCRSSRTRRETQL

With COc1ccc(/C=C/c2ccc3cccc(O)c3n2)cc1OC [compound 4] the “affinity for E6AP” value (E6AP) was “did not have detectable affinity”, the “restoration of p53 levels in vitro” value (p53-Luc) was “restored p53 levels in vitro to similar levels as the proteasome inhibitor MG132” and the cell cycle distribution (C33a cells [1]) was “normal cell cycle distribution”. The “p53 binding to the PUMA promoter compared to controls” value (PUMA promoter; C33a cells) was 38.9±2.4 fold, the “p53 binding to the PUMA promoter compared to controls” value (PUMA promoter; HeLa cells) was 31.3±8.7 fold and the trypsin-like proteasome activity [2] was “did not significantly reduce”. The “cell viability (Fig 5D)” value (SQ20B cells) was “decreased viability”, the “expression of p21, BAX and FAS” value (p21, BAX and FAS) was “induced expression” and the IC50 (C33a cells [3]; C33a cells, 48 hrs, Cell Titer Glo) was 2300 nM. For the same compound, the “cell viability at 30 μM” value (C33a cells [3]; C33a, 30 μM, 48h) was “decreased viability”, the “cell viability (Fig 5D)” value (C33a cells [3]; C33a, mutant p53) was “decreased viability” and the PUMA transcription upregulation (PUMA; C33a cells) was 2.76±0.29 fold. The PUMA transcription upregulation (PUMA; HeLa cells) was 2.04±0.85 fold, the “cell viability (Fig 5D)” value (HeLa cells; HeLa) was “decreased viability” and the IC50 (HeLa cells; HeLa cells, 48 hrs, Cell Titer Glo) was 4.5 µM. For the same compound, the “cell viability at 30 μM” value (HeLa cells; HeLa, 30 μM, 48h) was “decreased viability”, the “viability of mutHCT116 cells relative to wtHCT116 cells” value (HCT116 cells; 10 μM, percent viability mutHCT116 divided by wtHCT116) was 2.5±0.5 fold and the “cell viability (Fig 5D)” value (HCT116 cells; HCT116, wild type p53) was “decreased viability”. The “fold lesser affinity for E6 than for p53” value (E6; E6 versus p53) was 16 fold, the Kd (E6; read-out: KD for E6, recombinant E6) was 3.2 ± 1 µM and the “cell viability at 30 μM” value (siHA cells) was “decreased viability”.
